The assay concerns the target T1, Human Cav3.2 Channels (Homo sapiens, UniProt O95180).
T1 construct: expressed in transfected cells
Put plainly: Electrophysiologic (whole-cell patch-clamp) assessment of calcium channel activity in HEK293 cells stably expressing hCav3.2. Particulars: −77 mV, geometric mean, read-out: Human Cav3.2 −77 mV IC50 (μM) GeoMean. Format: cell-based. On the procedure:
(i) In Vitro Methods—Electrophysiologic Assessment of Calcium Channel Activity:
Patch-clamp recordings were performed using HEK293 cells stably expressing hCav3.2. Cells were plated in T175 flasks and grown at 37° C. and under 5% CO2 to approximately 50% confluency. On the day of the experiment, cells were harvested with Detachin™ cell detachment solution (Genlantis, San Diego, Calif.) and maintained in serum-free culture medium supplemented with 25 mM HEPES up to several hours prior to experiment. Whole-cell patch-clamp recordings were obtained using extracellular saline consisting of (mM): 87.5 CsCl, 40 TEA-Cl, 5 CaCl2, 1 MgCl2, 10 HEPES, 10 glucose. The pH was adjusted to 7.2 with CsOH and the osmolarity was adjusted to approximately 310 mOsm with sucrose. Intracellular solution consisted of (mM): 112 CsCl, 27 CsF, 2 NaCl, 8.2 EGTA, 10 HEPES. Prior to an experiment 4 mM Mg2ATP was added and the pH was adjusted to 7.2 with CsOH with an osmolarity of approximately 290 mOsm. A two-pulse voltage protocol was utilized to assess compound inhibition. First, cells were held with an 8 s pre-pulse at −100 mV prior to a 160 ms test pulse to −30 mV. This was followed by an 8 s pre-pulse at approximately −75 mV prior to a […]. Increasing concentrations of antagonist were applied to individual cells in a multi-addition format with 5 minutes in each test concentration. For each cell, responses were normalized to dimethyl sulfoxide vehicle control to generate concentration-response curves.
T1 sequence (O95180 whole entry): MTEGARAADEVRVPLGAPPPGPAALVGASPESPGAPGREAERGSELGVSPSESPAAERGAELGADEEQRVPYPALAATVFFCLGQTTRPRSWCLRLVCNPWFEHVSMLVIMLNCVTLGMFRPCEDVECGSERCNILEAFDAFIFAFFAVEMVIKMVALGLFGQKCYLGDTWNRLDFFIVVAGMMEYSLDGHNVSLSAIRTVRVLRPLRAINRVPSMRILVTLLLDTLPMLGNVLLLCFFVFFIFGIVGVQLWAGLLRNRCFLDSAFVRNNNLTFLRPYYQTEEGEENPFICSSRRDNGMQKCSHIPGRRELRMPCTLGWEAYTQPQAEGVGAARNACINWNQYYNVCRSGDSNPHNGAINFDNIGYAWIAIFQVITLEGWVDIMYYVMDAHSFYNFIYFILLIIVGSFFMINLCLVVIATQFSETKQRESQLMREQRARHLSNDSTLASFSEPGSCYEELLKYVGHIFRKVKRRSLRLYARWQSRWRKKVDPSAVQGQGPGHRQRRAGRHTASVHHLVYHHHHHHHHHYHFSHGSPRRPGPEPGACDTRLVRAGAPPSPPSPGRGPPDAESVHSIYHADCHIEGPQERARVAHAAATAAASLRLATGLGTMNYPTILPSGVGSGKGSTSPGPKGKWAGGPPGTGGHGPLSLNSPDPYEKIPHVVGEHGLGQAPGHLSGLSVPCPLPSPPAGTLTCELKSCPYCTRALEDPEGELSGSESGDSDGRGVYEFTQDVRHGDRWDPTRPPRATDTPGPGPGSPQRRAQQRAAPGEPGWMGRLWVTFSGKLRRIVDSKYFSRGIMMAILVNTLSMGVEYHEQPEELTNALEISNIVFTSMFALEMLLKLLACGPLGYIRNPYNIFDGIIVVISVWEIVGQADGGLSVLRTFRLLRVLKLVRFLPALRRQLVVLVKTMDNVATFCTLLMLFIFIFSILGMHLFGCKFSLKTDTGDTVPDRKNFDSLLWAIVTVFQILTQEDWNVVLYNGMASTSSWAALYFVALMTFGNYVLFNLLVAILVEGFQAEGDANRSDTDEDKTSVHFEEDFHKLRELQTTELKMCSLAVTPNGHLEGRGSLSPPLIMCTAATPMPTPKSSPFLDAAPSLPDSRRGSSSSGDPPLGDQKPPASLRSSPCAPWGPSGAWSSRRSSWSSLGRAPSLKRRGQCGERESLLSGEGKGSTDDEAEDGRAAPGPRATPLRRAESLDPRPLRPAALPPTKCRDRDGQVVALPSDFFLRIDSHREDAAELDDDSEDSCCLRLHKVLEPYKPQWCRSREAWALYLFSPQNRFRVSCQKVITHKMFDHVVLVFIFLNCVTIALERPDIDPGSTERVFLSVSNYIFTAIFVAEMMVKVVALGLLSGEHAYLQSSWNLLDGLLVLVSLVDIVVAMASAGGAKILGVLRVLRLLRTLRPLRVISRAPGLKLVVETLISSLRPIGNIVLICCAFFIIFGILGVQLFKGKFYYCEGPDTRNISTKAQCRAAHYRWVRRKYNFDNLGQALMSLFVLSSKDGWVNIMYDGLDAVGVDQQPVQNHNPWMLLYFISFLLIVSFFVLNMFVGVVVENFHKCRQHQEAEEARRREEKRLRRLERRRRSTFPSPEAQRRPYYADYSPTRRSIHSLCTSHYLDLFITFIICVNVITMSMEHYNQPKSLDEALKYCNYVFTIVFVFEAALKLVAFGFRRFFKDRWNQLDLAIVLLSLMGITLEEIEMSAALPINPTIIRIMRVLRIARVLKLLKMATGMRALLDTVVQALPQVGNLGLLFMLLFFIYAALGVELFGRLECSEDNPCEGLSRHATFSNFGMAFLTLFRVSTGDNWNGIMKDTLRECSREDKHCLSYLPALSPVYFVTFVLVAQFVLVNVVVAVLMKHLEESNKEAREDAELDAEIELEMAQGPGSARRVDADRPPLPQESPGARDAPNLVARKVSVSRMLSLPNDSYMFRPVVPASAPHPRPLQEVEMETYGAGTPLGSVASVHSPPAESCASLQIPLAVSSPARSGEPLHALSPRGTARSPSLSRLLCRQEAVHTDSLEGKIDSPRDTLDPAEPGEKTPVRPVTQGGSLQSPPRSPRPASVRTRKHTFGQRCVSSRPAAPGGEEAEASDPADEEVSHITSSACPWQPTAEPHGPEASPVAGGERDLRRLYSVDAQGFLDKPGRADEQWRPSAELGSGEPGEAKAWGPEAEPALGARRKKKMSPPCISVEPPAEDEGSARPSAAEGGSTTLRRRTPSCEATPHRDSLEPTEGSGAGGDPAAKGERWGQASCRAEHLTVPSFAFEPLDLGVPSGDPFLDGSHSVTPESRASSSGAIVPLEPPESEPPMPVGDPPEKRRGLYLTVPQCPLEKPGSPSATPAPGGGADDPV
Regarding `O=C(c1cccc(S(=O)(=O)Nc2ccc(C(F)(F)F)cc2)c1)N1CCN2CCC[C@@H]2C1` [Example 1, 3-[(8aR)-hexahydropyrrolo[1,2-a]pyrazin-2(1H)-ylcarbonyl]-N-[4-(trifluoromethyl)phenyl]benzenesulfonamide], the IC50 is above 10 µM.

On to `O=C(c1cccc(S(=O)(=O)Nc2c(F)cccc2F)c1)N1CCN2CCC[C@H]2C1` [Example 4, N-(2,6-difluorophenyl)-3-[(8aS)-hexahydropyrrolo[1,2-a]pyrazin-2(1H)-ylcarbonyl]benzenesulfonamide], for which the IC50 was 7.7 µM.

As for `O=C(c1cccc(S(=O)(=O)Nc2ccc(F)cc2)c1)N1CCN2CCC[C@H]2C1` [Example 5, N-(4-fluorophenyl)-3-[(8aS)-hexahydropyrrolo[1,2-a]pyrazin-2(1H)-ylcarbonyl]benzenesulfonamide], the IC50 was determined as 1.8 µM.

`O=C(c1cccc(S(=O)(=O)Nc2cccc(C(F)(F)F)c2)c1)N1CCN2CCC[C@H]2C1` [Example 6, 3-[(8aS)-hexahydropyrrolo[1,2-a]pyrazin-2(1H)-ylcarbonyl]-N-[3-(trifluoromethyl)phenyl]benzenesulfonamide]: the IC50 was 1.9 µM.

As to `O=C(c1cccc(S(=O)(=O)Nc2cccc(F)c2)c1)N1CCN2CCC[C@@H]2C1` [Example 7, N-(3-fluorophenyl)-3-[(8aR)-hexahydropyrrolo[1,2-a]pyrazin-2(1H)-ylcarbonyl]benzenesulfonamide], the IC50 came to 6.5 µM.

For the compound `O=C(c1cccc(S(=O)(=O)Nc2ccc(C(F)(F)F)cc2)c1)N1CCN2CCC[C@H]2C1` [Example 8, 3-[(8aS)-hexahydropyrrolo[1,2-a]pyrazin-2(1H)-ylcarbonyl]-N-[4-(trifluoromethyl)phenyl]benzenesulfonamide], the IC50 is 2.1 µM.

Take `O=C(c1cccc(S(=O)(=O)Nc2ccccc2Cl)c1)N1CCN2CCC[C@@H]2C1` [Example 9, N-(2-chlorophenyl)-3-[(8aR)-hexahydropyrrolo[1,2-a]pyrazin-2(1H)-ylcarbonyl]benzenesulfonamide]: the IC50 turned out to be 7.3 µM.

`O=C(c1cccc(S(=O)(=O)Nc2ccccc2Cl)c1)N1CCN2CCC[C@H]2C1` [Example 10, N-(2-chlorophenyl)-3-[(8aS)-hexahydropyrrolo[1,2-a]pyrazin-2(1H)-ylcarbonyl]benzenesulfonamide]: the IC50 came out at 1.5 µM.

Regarding `O=C(c1cccc(S(=O)(=O)Nc2cccc(F)c2F)c1)N1CCN2CCC[C@H]2C1` [Example 11, N-(2,3-difluorophenyl)-3-[(8aS)-hexahydropyrrolo[1,2-a]pyrazin-2(1H)-ylcarbonyl]benzenesulfonamide], the IC50 came to 6.6 µM.

In the case of `O=C(c1cccc(S(=O)(=O)Nc2cc(F)ccc2F)c1)N1CCN2CCC[C@H]2C1` [Example 12, N-(2,5-difluorophenyl)-3-[(8aS)-hexahydropyrrolo[1,2-a]pyrazin-2(1H)-ylcarbonyl]benzenesulfonamide], the concentration for half-maximal inhibition (IC50) was determined as 4.7 µM.

Turning to `O=C(c1cccc(S(=O)(=O)Nc2cccc(F)c2F)c1)N1CCN2CCC[C@@H]2C1` [Example 14, N-(2,3-difluorophenyl)-3-[(8aR)-hexahydropyrrolo[1,2-a]pyrazin-2(1H)-ylcarbonyl]benzenesulfonamide], the IC50 was determined as 3.7 µM.

Take `O=C(c1cccc(S(=O)(=O)Nc2cc(F)ccc2F)c1)N1CCN2CCC[C@@H]2C1` [Example 15, N-(2,5-difluorophenyl)-3-[(8aR)-hexahydropyrrolo[1,2-a]pyrazin-2(1H)-ylcarbonyl]benzenesulfonamide]: the IC50 was above 10 µM.

In the case of `O=C(c1cccc(S(=O)(=O)Nc2ccc(F)cc2F)c1)N1CCN2CCC[C@H]2C1` [Example 16, N-(2,4-difluorophenyl)-3-[(8aS)-hexahydropyrrolo[1,2-a]pyrazin-2(1H)-ylcarbonyl]benzenesulfonamide], the IC50 worked out at 6 µM.

For `O=C(c1cccc(S(=O)(=O)Nc2ccccc2F)c1)N1CCN2CCC[C@H]2C1` [Example 17, N-(2-fluorophenyl)-3-[(8aS)-hexahydropyrrolo[1,2-a]pyrazin-2(1H)-ylcarbonyl]benzenesulfonamide], the IC50 was above 10 µM.

Regarding `O=C(c1cccc(S(=O)(=O)Nc2ccc(F)cc2F)c1)N1CCN2CCC[C@@H]2C1` [Example 18, N-(2,4-difluorophenyl)-3-[(8aR)-hexahydropyrrolo[1,2-a]pyrazin-2(1H)-ylcarbonyl]benzenesulfonamide], the IC50 was 9.3 µM.

For the compound `O=C(c1cccc(S(=O)(=O)Nc2ccccc2C(F)(F)F)c1)N1CCN2CCC[C@H]2C1` [Example 19, 3-[(8aS)-hexahydropyrrolo[1,2-a]pyrazin-2(1H)-ylcarbonyl]-N-[2-(trifluoromethyl)phenyl]benzenesulfonamide], the IC50 worked out at 2.4 µM.

`O=C(c1cccc(S(=O)(=O)Nc2cccc(Cl)c2)c1)N1CCN2CCC[C@H]2C1` [Example 21, N-(3-chlorophenyl)-3-[(8aS)-hexahydropyrrolo[1,2-a]pyrazin-2(1H)-ylcarbonyl]benzenesulfonamide]: the IC50 amounted to 5.9 µM.

With `O=C(c1cccc(S(=O)(=O)N2CCN(C(c3ccc(F)cc3)c3ccc(F)cc3)CC2)c1)N1CCN2CCC[C@@H]2C1` [Example 22, (8aR)-2-[3-({4-[bis(4-fluorophenyl)methyl]piperazin-1-yl}sulfonyl)benzoyl]octahydropyrrolo[1,2-a]pyrazine], the IC50 turned out to be 1.4 µM.

`O=C(c1cccc(S(=O)(=O)N2CCN(C(c3ccc(F)cc3)c3ccc(F)cc3)CC2)c1)N1CCN2CCC[C@H]2C1` [Example 23, (8aS)-2-[3-({4-[bis(4-fluorophenyl)methyl]piperazin-1-yl}sulfonyl)benzoyl]octahydropyrrolo[1,2-a]pyrazine]: the IC50 amounted to 2.5 µM.

In the case of `O=C(c1cccc(S(=O)(=O)N2CCN(C(c3ccccc3)c3ccccc3)CC2)c1)N1CCN2CCC[C@@H]2C1` [Example 24, (8aR)-2-{3-[(4-benzhydrylpiperazin-1-yl)sulfonyl]benzoyl}octahydropyrrolo[1,2-a]pyrazine], the IC50 is 1 µM.

In the case of `O=C(c1cccc(S(=O)(=O)Nc2cccc(Cl)c2)c1)N1CCN2CCC[C@@H]2C1` [Example 25, N-(3-chlorophenyl)-3-[(8aR)-hexahydropyrrolo[1,2-a]pyrazin-2(1H)-ylcarbonyl]benzenesulfonamide], the IC50 came out at 8.9 µM.

As to `O=C(c1cccc(S(=O)(=O)NCC(c2ccccc2)c2ccccc2)c1)N1CCN2CCC[C@@H]2C1` [Example 26, N-(2,2-diphenylethyl)-3-[(8aR)-hexahydropyrrolo[1,2-a]pyrazin-2(1H)-ylcarbonyl]benzenesulfonamide], the IC50 turned out to be 1.5 µM.

As to `O=C(c1cccc(S(=O)(=O)Nc2ccccc2C(F)(F)F)c1)N1CCN2CCC[C@@H]2C1` [Example 27, 3-[(8aR)-hexahydropyrrolo[1,2-a]pyrazin-2(1H)-ylcarbonyl]-N-[2-(trifluoromethyl)phenyl]benzenesulfonamide], the IC50 was above 10 µM.

In the case of `O=C(c1cccc(S(=O)(=O)N2CCN(C(c3ccccc3)c3ccccc3)CC2)c1)N1CCN2CCC[C@H]2C1` [Example 28, (8aS)-2-{3-[(4-benzhydrylpiperazin-1-yl)sulfonyl]benzoyl}octahydropyrrolo[1,2-a]pyrazine], the IC50 came to 1.9 µM.

For `O=C(c1cccc(S(=O)(=O)NCCC(c2ccccc2)c2ccccc2)c1)N1CCN2CCC[C@@H]2C1` [Example 29, N-(3,3-diphenylpropyl)-3-[(8aR)-hexahydropyrrolo[1,2-a]pyrazin-2(1H)-ylcarbonyl]benzenesulfonamide], the IC50 is 2.1 µM.

The record behind these values is patent publication US8741899B2, “(4-chloro-2-fluoro-N-(2-fluorophenyl)-5-[(8aR)-hexahydropyrrolo-[1,2-a]pyrazin-2(1H)-ylcarbonyl]-benzenesulfonamide, and pharmaceutically acceptable salts thereof” (AbbVie Inc., priority 2009, dated 2014).
